From BindingDB's records for doi:10.1111/cbdd.12116 (University of Troms&#163, 2013)

molecular target: Sodium-dependent serotonin transporter (Rattus norvegicus, UniProt P31652); test: In vitro Binding Affinity Assay; settings: pH 7.7; 25 °C
Procedure: The assay was performed in accordance with the method described by Owens et al. with slight modifications. Rat cerebral cortex was homogenized in 30 volumes of ice-cold 50mM Tris-HCl containing 150mM NaCl and 5mM KCl, pH 7.7, at 25°C and centrifuged at 20,000 x g for 20 min. Pellet was resuspended in 30 volumes of buffer and centrifuged again for 2 more times. The mixture of 240uL of the tissue suspension, 30uL of 1µM imipramine, 30uL of 1nM [3H]-citalopram and 100µL of the analyzed compound (10^-10 to 10^-4M) were incubated at 22°C for 1 h. Incubations were terminated by vacuum filtration and washed twice with 100µL of ice-cold buffer. The radioactivity was measured using a WALLAC 1409 DSA liquid scintillation counter.

Sequence of Sodium-dependent serotonin transporter (P31652 whole entry): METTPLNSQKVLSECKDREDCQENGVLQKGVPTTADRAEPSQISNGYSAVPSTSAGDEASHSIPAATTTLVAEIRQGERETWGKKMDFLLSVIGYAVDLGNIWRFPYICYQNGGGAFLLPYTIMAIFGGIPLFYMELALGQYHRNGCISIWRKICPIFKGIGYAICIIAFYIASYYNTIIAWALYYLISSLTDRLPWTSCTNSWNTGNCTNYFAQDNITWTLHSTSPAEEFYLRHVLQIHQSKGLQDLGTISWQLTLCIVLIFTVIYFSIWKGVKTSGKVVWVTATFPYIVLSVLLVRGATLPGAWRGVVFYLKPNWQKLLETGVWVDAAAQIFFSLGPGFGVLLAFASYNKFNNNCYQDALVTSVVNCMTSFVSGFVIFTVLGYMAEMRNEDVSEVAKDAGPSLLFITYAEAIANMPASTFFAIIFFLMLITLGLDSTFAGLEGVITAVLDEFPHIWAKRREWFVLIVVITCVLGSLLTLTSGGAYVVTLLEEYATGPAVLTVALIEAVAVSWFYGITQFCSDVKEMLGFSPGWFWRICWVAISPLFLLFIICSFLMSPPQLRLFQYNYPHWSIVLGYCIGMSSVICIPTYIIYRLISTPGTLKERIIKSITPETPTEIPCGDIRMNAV

Row | SMILES | Ki [nM]
1 | CCCCCCCCCCCN1CCN(c2ccc3cc([N+](=O)[O-])ccc3n2)CC1 [2-(4-Undecyl-piperazin-1-yl)-6-nitroquinoline (11)] | 12.6
2 | CCCCCCCCCN1CCN(c2ccc3cc([N+](=O)[O-])ccc3n2)CC1 [2-(4-Nonyl-piperazin-1-yl)-6-nitroquinoline (9)] | 1.8
3 | CCCN1CCN(c2ccc3cc([N+](=O)[O-])ccc3n2)CC1 [2-(4-Propyl-piperazin-1-yl)-6-nitroquinoline (3)] | 496
4 | CCCCCCCCCCCCN1CCN(c2ccc3cc([N+](=O)[O-])ccc3n2)CC1 [2-(4-Dodecyl-piperazin-1-yl)-6-nitroquinoline (12)] | 16.1
5 | CCCCCN1CCN(c2ccc3cc([N+](=O)[O-])ccc3n2)CC1 [2-(4-Pentyl-piperazin-1-yl)-6-nitroquinoline (5)] | 80.5
6 | CCCCN1CCN(c2ccc3cc([N+](=O)[O-])ccc3n2)CC1 [2-(4-Butyl-piperazin-1-yl)-6-nitroquinoline (4)] | 24
7 | CN1CCN(c2ccc3cc([N+](=O)[O-])ccc3n2)CC1 [2-(4-Methyl-piperazin-1-yl)-6-nitroquinoline (1)] | 1300
8 | CCN1CCN(c2ccc3cc([N+](=O)[O-])ccc3n2)CC1 [2-(4-Ethyl-piperazin-1-yl)-6-nitroquinoline (2)] | 86.1
9 | CCCCCCCCN1CCN(c2ccc3cc([N+](=O)[O-])ccc3n2)CC1 [2-(4-Octyl-piperazin-1-yl)-6-nitroquinoline (8)] | 20.8
10 | CCCCCCN1CCN(c2ccc3cc([N+](=O)[O-])ccc3n2)CC1 [2-(4-Hexyl-piperazin-1-yl)-6-nitroquinoline (6)] | 72.9
11 | CCCCCCCCCCN1CCN(c2ccc3cc([N+](=O)[O-])ccc3n2)CC1 [2-(4-Decyl-piperazin-1-yl)-6-nitroquinoline (10)] | 4.5
12 | CCCCCCCN1CCN(c2ccc3cc([N+](=O)[O-])ccc3n2)CC1 [2-(4-Heptyl-piperazin-1-yl)-6-nitroquinoline (7)] | 54.1
